Columns and labels:
[1] = molecular target: T1, Nuclear receptor ROR-gamma (Homo sapiens, UniProt P51449)
T1 sequence (P51449 whole entry): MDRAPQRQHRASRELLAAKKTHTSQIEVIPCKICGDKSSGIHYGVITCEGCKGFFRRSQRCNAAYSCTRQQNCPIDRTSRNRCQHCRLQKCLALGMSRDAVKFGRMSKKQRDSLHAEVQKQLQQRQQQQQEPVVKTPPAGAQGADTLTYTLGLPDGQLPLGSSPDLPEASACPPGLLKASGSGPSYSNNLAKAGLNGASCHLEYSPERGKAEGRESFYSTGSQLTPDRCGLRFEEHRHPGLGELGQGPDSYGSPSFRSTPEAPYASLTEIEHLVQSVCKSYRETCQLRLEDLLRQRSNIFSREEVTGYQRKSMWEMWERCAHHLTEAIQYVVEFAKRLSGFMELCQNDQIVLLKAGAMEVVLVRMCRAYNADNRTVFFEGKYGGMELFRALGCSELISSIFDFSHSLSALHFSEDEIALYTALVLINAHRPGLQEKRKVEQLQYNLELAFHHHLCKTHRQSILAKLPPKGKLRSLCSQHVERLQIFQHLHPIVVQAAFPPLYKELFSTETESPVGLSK
Description: Inverse agonist activity at biotinylated human RORgammat expressed in Escherichia coli BL21 assessed as effect on recruitment of SRC1/2 after 1 hr by dual-FRET assay

[2] = molecular target: T1, Nuclear receptor ROR-gamma; remark: listed apart in the source
Description: Inverse agonist activity at biotinylated human RORgammat LBD expressed in Escherichia coli BL21 assessed as inhibition of SRC1 recruitment after 1 hr by FRET assay in presence of N-(2-chloro-6-fluorobenzyl)-N-((2'-methoxy-[1,1'-biphenyl]-4-yl)methyl)benzenesulfonamide

[3] = molecular target: T2, Nuclear receptor ROR-gamma (Homo sapiens) (UniProt P51449)
T2 sequence (whole entry): T1 sequence (P51449 whole entry)
Description: Binding affinity to human RORgammat expressed in Escherichia coli BL21 assessed as melting temperature by thermal shift assay

[4] = molecular target: T3, Nuclear receptor ROR-gamma (Mus musculus, UniProt P51450); assay: Inverse agonist activity at RORgammat in mouse Th17 cells assessed as effect on cell differentiation measured as IL-17 level after 3 days by ELISA; type: cell-based
T3 sequence (P51450 whole entry): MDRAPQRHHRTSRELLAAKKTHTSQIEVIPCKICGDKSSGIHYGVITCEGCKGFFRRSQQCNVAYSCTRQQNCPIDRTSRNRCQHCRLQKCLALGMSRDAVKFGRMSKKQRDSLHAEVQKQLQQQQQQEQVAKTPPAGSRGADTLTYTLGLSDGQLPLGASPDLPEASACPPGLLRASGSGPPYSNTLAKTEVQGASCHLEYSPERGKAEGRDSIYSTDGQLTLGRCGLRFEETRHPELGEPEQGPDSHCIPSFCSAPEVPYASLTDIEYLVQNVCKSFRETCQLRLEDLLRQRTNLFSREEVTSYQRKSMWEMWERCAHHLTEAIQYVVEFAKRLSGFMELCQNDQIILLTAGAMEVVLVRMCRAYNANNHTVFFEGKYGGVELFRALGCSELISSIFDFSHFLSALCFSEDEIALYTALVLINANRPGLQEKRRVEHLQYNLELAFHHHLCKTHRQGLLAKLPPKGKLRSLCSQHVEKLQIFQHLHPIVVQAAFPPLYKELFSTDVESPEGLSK

SMILES	IC50 [4] [nM]	further results
CCS(=O)(=O)c1ccc(CC(=O)Nc2nc(-c3cc(Cl)ccc3Cl)cs2)cc1		IC50 [1]: 1000 nM; IC50 [2]: 1000 nM; ΔTm [3]: 7.1 °C
CCS(=O)(=O)c1ccc(CC(=O)Nc2ccc3c(ccn3CCc3ccc(Cl)c(Cl)c3)c2)cc1	40	
CCS(=O)(=O)c1ccc(CC(=O)Nc2ccc3c(ccn3CCc3ccc(C#N)cc3)c2)cc1	457	
CCS(=O)(=O)c1ccc(CC(=O)Nc2ccc3c(ccn3CCc3ccc(OC(C)C)cc3)c2)cc1	70	
CCCN(CCc1ccc(C(F)(F)F)cc1)c1ccc(NC(=O)Cc2ccc(S(=O)(=O)CC)cc2)cc1	733	
CCS(=O)(=O)c1ccc(CC(=O)Nc2ccc(NCCc3ccc(C(F)(F)F)cc3)c(Cl)c2)cc1	1020	
CCS(=O)(=O)c1ccc(CC(=O)Nc2ccc3c(ccn3CCc3ccc(Cl)cc3)c2)cc1	164	
CCS(=O)(=O)c1ccc(CC(=O)Nc2ccc3c(ccn3CCc3ccc(Cl)cc3Cl)c2)cc1	9	
CCCN(Cc1ccc(NC(=O)Cc2ccc(S(=O)(=O)CC)cc2)cc1)Cc1ccc(C(F)(F)F)cc1	320	
CCS(=O)(=O)c1ccc(CC(=O)Nc2ccc3c(ccn3CCc3ccc(C(F)(F)F)cc3)c2)cc1	31	
CCCN(Cc1ccc(C)cc1)Cc1ccc(NC(=O)Cc2ccc(S(=O)(=O)CC)cc2)cc1		EC50 [1]: 25 nM; IC50 [2]: > 25000 nM
CCS(=O)(=O)c1ccc(CC(=O)Nc2ccc(CNCc3ccc(C(F)(F)F)cc3)cc2)cc1	> 10000	
